Read-outs that look alike come from different tables or passages of the source.
Key:
S. aureus 209P = assay: Metal ion or food preservative added to growth medium, viable count; assay type: cell-based
Experimental: (§1) To a standard medium for counting viable bacteria described below, each metal ion with varied concentration was added. […] Then, the number of viable bacteria was counted with time in a common procedure.
(§2) Sample bacteria: S. aureus 209P as a representative of Gram-positive bacteria • E. coli 0-157 as a representative of Gram-negative bacteria
(§3) Standard medium for counting viable bacteria: yeast extract 2.5 g, peptone 5 g, glucose 1 g, agar 15 g, pH 7.2

[1] = tested on: sample bacteria (S. aureus 209P, E. coli O-157); assay: Death rate over time, food preservative in purified water pH 3.0
E. coli O-157 [2] = assay: Metal ion or food preservative added to growth medium, viable count; assay type: cell-based; conditions: food preservative in growth medium
E. coli O-157 [3] = assay: as above; assay type: cell-based; conditions: metal ion in growth medium
Experimental: as §1, §2, §3

[4] = tested on: pus mainly including antibiotic resistant MRSA; conditions: Pus (MRSA) 4 × 10^9/g
[5] = tested on: intestinal bacteria in feces; assay: Sterilization effect on specimen: feces; conditions: Feces 1.5 × 10^11/g
[6] = tested on: pus mainly including antibiotic resistant Pseudomonas aeruginosa (MDRP); conditions: Pus (MDRP) 5 × 10^9/g
[7] = tested on: spores of Clostridium species; assay: Spore decay time and decay rate in dried soil, anaerobic culture; assay type: cell-based; conditions: for Spore decay rate, Spores of Clostridium species: 1 g dried soil in 10 ml, anaerobic culture
Experimental: (§4) Sands in a sandbox in a park and riverside soil were collected and mixed. The mixture was dried with heated air at 80 to 90° C. for 6 hours. Then, 1 g of the dried mixture was added into water and immediately filtered with a filter. A part of the filtrate was applied onto a glass slide, and spores were stained in a common procedure. The number of stained spores was counted and the number of spores contained in 1 g of soil was determined. Simultaneously, the spores were aerobically (Bacillus species proliferated) and anaerobically (Clostridium species proliferated) cultured, and each ratio was determined.
(§5) Then, into 10 ml of the sample disinfectant, 1 g of the dried soil was added. Some of the mixture was collected with time, and cultured aerobically and anaerobically. The number of growing colonies was counted to determine the decay rate of the spores.

[8] = tested on: spores of Bacillus species; assay: Spore decay time and decay rate in dried soil, aerobic culture; assay type: cell-based; conditions: for Spore decay rate, Spores of Bacillus species: 1 g dried soil in 10 ml, aerobic culture
Experimental: as §4, §5

[9] = tested on: viable bacteria in sputum; assay: Sterilization effect on specimen: sputum; conditions: Sputum 2 × 10^9/g
[10] = food preservative in growth medium

For `O=C(O)c1ccccc1` [Benzoic acid], the “(a) Antiproliferative activity, concentration” value (shortened to “(a) Antiproliferative activity”) (S. aureus 209P; [10]) was 25~200 ppm, the “(b) Bacteriostatic activity, concentration” value (from here on “(b) Bacteriostatic activity”) (S. aureus 209P; [10]) was 180 ppm> and the Death rate ([1]; 50 ppm, 5 min) was 0. It also gave a Death rate ([1]; 50 ppm, 10 min) of 0, a Death rate ([1]; 50 ppm, 15 min) of 0 and a Death rate ([1]; 50 ppm, 30 min) of 1. It also gave a Death rate ([1]; 50 ppm, 60 min) of 5, a Death rate ([1]; 50 ppm, 90 min) of 10 and a Death rate ([1]; 50 ppm, 120 min) of 12. It also gave a Death rate ([1]; 200 ppm, 5 min) of 0, a Death rate ([1]; 200 ppm, 10 min) of 0 and a Death rate ([1]; 200 ppm, 15 min) of 0. It also gave a Death rate ([1]; 200 ppm, 30 min) of 2, a Death rate ([1]; 200 ppm, 60 min) of 7 and a Death rate ([1]; 200 ppm, 90 min) of 10. It also gave a Death rate ([1]; 200 ppm, 120 min) of 12, a Death rate ([1]; 500 ppm, 5 min) of 0 and a Death rate ([1]; 500 ppm, 10 min) of 0. For the same compound, the Death rate ([1]; 500 ppm, 15 min) was 1, the Death rate ([1]; 500 ppm, 30 min) was 3 and the Death rate ([1]; 500 ppm, 60 min) was 8. The Death rate ([1]; 500 ppm, 90 min) was 12, the Death rate ([1]; 500 ppm, 120 min) was 15 and the “(a) Antiproliferative activity” value (E. coli O-157 [2]) was 25~200 ppm. For the same compound, the “(b) Bacteriostatic activity” value (E. coli O-157 [2]) was 180 ppm>.
With `O.O.O.O.O.O.O.O=S(=O)([O-])[O-].[Zn+2]` [Zn^2+, ZnSO4•7H2O] the “(a) Antiproliferative activity” value (S. aureus 209P; metal ion in growth medium) was 12~18 ppm, the “(b) Bacteriostatic activity” value (S. aureus 209P; metal ion in growth medium) was 16~200 ppm and the “(c) Bactericidal activity, concentration” value (S. aureus 209P; metal ion in growth medium) was 200 ppm>. The “Acceleration of growth, concentration” value (S. aureus 209P; metal ion in growth medium) was 10 ppm<, the “(a) Antiproliferative activity” value (E. coli O-157 [3]) was 10~15 ppm and the “(b) Bacteriostatic activity” value (E. coli O-157 [3]) was 15~250 ppm. For the same compound, the “(c) Bactericidal activity, concentration” value (E. coli O-157 [3]) was 250 ppm> and the “Acceleration of growth, concentration” value (E. coli O-157 [3]) was 10 ppm<.
`O=C([O-])c1ccccc1.[Na+]` [Sodium benzoate] was tested, and the “(a) Antiproliferative activity” value (S. aureus 209P; [10]) was 40~300 ppm, the “(b) Bacteriostatic activity” value (S. aureus 209P; [10]) was 250 ppm> and the Death rate ([1]; 50 ppm, 5 min) was 0. For the same compound, the Death rate ([1]; 50 ppm, 10 min) was 0, the Death rate ([1]; 50 ppm, 15 min) was 0 and the Death rate ([1]; 50 ppm, 30 min) was 2. The Death rate ([1]; 50 ppm, 60 min) was 5, the Death rate ([1]; 50 ppm, 90 min) was 8 and the Death rate ([1]; 50 ppm, 120 min) was 10. For the same compound, the Death rate ([1]; 200 ppm, 5 min) was 0, the Death rate ([1]; 200 ppm, 10 min) was 0 and the Death rate ([1]; 200 ppm, 15 min) was 0. The Death rate ([1]; 200 ppm, 30 min) was 2, the Death rate ([1]; 200 ppm, 60 min) was 5 and the Death rate ([1]; 200 ppm, 90 min) was 10. The Death rate ([1]; 200 ppm, 120 min) was 12, the Death rate ([1]; 500 ppm, 5 min) was 0 and the Death rate ([1]; 500 ppm, 10 min) was 0. For the same compound, the Death rate ([1]; 500 ppm, 15 min) was 1, the Death rate ([1]; 500 ppm, 30 min) was 3 and the Death rate ([1]; 500 ppm, 60 min) was 8. For the same compound, the Death rate ([1]; 500 ppm, 90 min) was 12, the Death rate ([1]; 500 ppm, 120 min) was 15 and the “(a) Antiproliferative activity” value (E. coli O-157 [2]) was 40~300 ppm. The “(b) Bacteriostatic activity” value (E. coli O-157 [2]) was 220 ppm>.
With `C/C=C/C=C/C(=O)[O-].[K+]` [Potassium sorbate] the “(a) Antiproliferative activity” value (S. aureus 209P; [10]) was 35~250 ppm, the “(b) Bacteriostatic activity” value (S. aureus 209P; [10]) was 200 ppm> and the Death rate ([1]; 50 ppm, 5 min) was 0. For the same compound, the Death rate ([1]; 50 ppm, 10 min) was 0, the Death rate ([1]; 50 ppm, 15 min) was 0 and the Death rate ([1]; 50 ppm, 30 min) was 2. It also gave a Death rate ([1]; 50 ppm, 60 min) of 5, a Death rate ([1]; 50 ppm, 90 min) of 8 and a Death rate ([1]; 50 ppm, 120 min) of 12. The Death rate ([1]; 200 ppm, 5 min) was 0, the Death rate ([1]; 200 ppm, 10 min) was 0 and the Death rate ([1]; 200 ppm, 15 min) was 0. It also gave a Death rate ([1]; 200 ppm, 30 min) of 2, a Death rate ([1]; 200 ppm, 60 min) of 6 and a Death rate ([1]; 200 ppm, 90 min) of 10. It also gave a Death rate ([1]; 200 ppm, 120 min) of 15, a Death rate ([1]; 500 ppm, 5 min) of 0 and a Death rate ([1]; 500 ppm, 10 min) of 0. For the same compound, the Death rate ([1]; 500 ppm, 15 min) was 1, the Death rate ([1]; 500 ppm, 30 min) was 3 and the Death rate ([1]; 500 ppm, 60 min) was 7. The Death rate ([1]; 500 ppm, 90 min) was 12, the Death rate ([1]; 500 ppm, 120 min) was 18 and the “(a) Antiproliferative activity” value (E. coli O-157 [2]) was 30~250 ppm. For the same compound, the “(b) Bacteriostatic activity” value (E. coli O-157 [2]) was 250 ppm>.
In the case of `OCl` [Sodium hypochlorite, sodium hypochlorite], the “The number of viable bacteria in specimen” value (from here on “The number”) ([4]; 5 min after addition) was 30000 g⁻¹, the “The number” value ([4]; 15 min after addition) was 500 g⁻¹ and the “The number” value ([4]; 30 min after addition) was 100 g⁻¹. The “The number” value ([4]; 60 min after addition) was 0 g⁻¹, the “The number” value ([5]; 5 min after addition) was 1e+08 g⁻¹ and the “The number” value ([5]; 15 min after addition) was 8e+06 g⁻¹. The “The number” value ([5]; 30 min after addition) was 8e+06 g⁻¹, the “The number” value ([5]; 60 min after addition) was 1e+07 g⁻¹ and the “The number” value ([5]; 60 min after addition, listed as hypochlorite) was 1e+07 g⁻¹. For the same compound, the “The number” value ([6]; 5 min after addition) was 2000 g⁻¹, the “The number” value ([6]; 15 min after addition) was 1000 g⁻¹ and the “The number” value ([6]; 30 min after addition) was 200 g⁻¹. The “The number” value ([6]; 60 min after addition) was 100 g⁻¹, the “Spore decay rate, Spores of Clostridium species” value ([7]; 1 min contact) was 0% and the “Spore decay rate, Spores of Clostridium species” value ([7]; 5 min contact) was 5%. The “Spore decay rate, Spores of Clostridium species” value ([7]; 10 min contact) was 20%, the “Spore decay rate, Spores of Clostridium species” value ([7]; 30 min contact) was 30% and the “Spore decay rate, Spores of Clostridium species” value ([7]; 60 min contact) was 100%. The spores decayed ([7]; 60 minutes contact) was 100%, the “Spore decay rate, Spores of Clostridium species” value ([7]; 120 min contact) was 100% and the “Spore decay rate, Spores of Bacillus species” value ([8]; 1 min contact) was 0%. For the same compound, the “Spore decay rate, Spores of Bacillus species” value ([8]; 5 min contact) was 0%, the “Spore decay rate, Spores of Bacillus species” value ([8]; 10 min contact) was 10% and the “Spore decay rate, Spores of Bacillus species” value ([8]; 30 min contact) was 30%. The “Spore decay rate, Spores of Bacillus species” value ([8]; 60 min contact) was 100%, the spores decayed ([8]; 60 minutes contact) was 100% and the “Spore decay rate, Spores of Bacillus species” value ([8]; 120 min contact) was 100%. The “The number” value ([9]; 5 min after addition) was 20000 g⁻¹, the “The number” value ([9]; 15 min after addition) was 10000 g⁻¹ and the “The number” value ([9]; 30 min after addition) was 10000 g⁻¹. The “The number” value ([9]; 60 min after addition) was 5000 g⁻¹ and the “The number” value ([9]; 60 min after addition, listed as sodium hypochlorite) was 5000 g⁻¹.

Source: patent US20110236504A1, “VERSATILE DISINFECTANT” (priority 2008, published 2011)
